Assay results published in BigSolDB 2.1.

O=C(NNC(=S)Nc1ccc(Cl)cc1)c1ccncc1
Conditions	solubility (mole fraction)
in PEG-400, 298.15 K	0.108
in PEG-400, 308.15 K	0.114
in PEG-400, 318.15 K	0.12
in PEG-400, 328.15 K	0.126
in PEG-400, 338.15 K	0.131

solubility (mole fraction)
Conditions	298.15 K	308.15 K	318.15 K	328.15 K	338.15 K
in ethanol	0.000647	0.000693	0.000743	0.000792	0.000834
in ethylene glycol	0.0077	0.00841	0.00894	0.00961	0.0104
in isopropanol	0.00113	0.00121	0.00121	0.00129	0.00138
in propylene glycol	0.00738	0.00789	0.00848	0.00909	0.00987
